Source: patent publication US7994324B2, “2-aminoquinoline derivatives” (Hoffmann-La Roche Inc., priority 2008, dated 2011)

Experiments:
[1] = target: T1, recombinant human 5-HT5A receptor (Homo sapiens, UniProt P47898); experiment: [3H]LSD radioligand binding assay; conditions: [3H]LSD (approximately 1 nM), membranes from HEK-EBNA cells transiently expressing 5-HT5A receptors; Ki from IC50 by Cheng-Prussoff equation
T1 construct: expressed in transfected cells; host or cells: HEK-EBNA (Human Embryonic Kidney-EBNA) cells, transient cDNA expression; membranes used
Protocol: A [^3H]LSD radioligand binding assay was used to determine the affinity of the compounds for the recombinant human 5-HT5A receptor, in membranes from transiently (cDNA) expressed 5-HT5A receptors in Human Embryonic Kidney-EBNA (HEK-EBNA) cells. Assay buffer consisted of Tris (50 mM) buffer containing 1 mM EGTA, 10 mM MgCl2 (pH 7.4) and 10 μM pargyline. The binding assay was carried out in 96-well-plates in the presence of [^3H]LSD (approximately 1 nM), approximately 2 μg/well of membrane protein, and 0.5 mg of Ysi-poly-1-lysine SPA beads in a final volume of 200 μl of buffer. Non-specific binding was defined using methiothepin 2 μM. Compounds were tested at 10 concentrations. All assays were conducted in duplicate and repeated at least two times. Assay plates were incubated for 120 min at room temperature before centrifugation. Bound ligand was determined using a Packard Topcount scintillation counter. IC50 values were calculated using a non-linear curve fitting program and Ki values calculated using the Cheng-Prussoff equation.

T1 sequence (P47898 whole entry): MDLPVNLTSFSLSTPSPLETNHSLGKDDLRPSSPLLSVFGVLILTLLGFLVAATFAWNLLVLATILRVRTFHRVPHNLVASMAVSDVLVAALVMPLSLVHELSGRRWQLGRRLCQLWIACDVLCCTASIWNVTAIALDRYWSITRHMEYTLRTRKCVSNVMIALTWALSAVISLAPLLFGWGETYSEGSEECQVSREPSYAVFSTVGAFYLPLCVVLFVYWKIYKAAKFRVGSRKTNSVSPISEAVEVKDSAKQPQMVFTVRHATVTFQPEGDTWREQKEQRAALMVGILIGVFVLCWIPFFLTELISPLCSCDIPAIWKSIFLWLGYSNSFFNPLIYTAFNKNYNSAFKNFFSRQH

Row | Compound | melting point [°C] | Ki [1] [nM]
1 | COc1cccc2c1C(Nc1ccc3c(NCCS(C)(=O)=O)cccc3n1)CO2 (racemic) [Example 40, N^5-(2-Methanesulfonyl-ethyl)-N^2-(RS)-(4-methoxy-2,3-dihydro-benzofuran-3-yl)-quinoline-2,5-diamine] | 188 | 29.1
2 | O=C(Nc1cccc2nc(N[C@@H]3CCc4ccccc43)ccc12)C1CC1 [Example 22, Cyclopropanecarboxylic acid[2-((R)-indan-1-ylamino)-quinolin-5-yl]-amide] | – | 68
3 | COc1cccc2c1C(Nc1ccc3c(NCCSC)cccc3n1)CO2 (racemic) [Example 39, rac-N^2-(4-Methoxy-2,3-dihydro-benzofuran-3-yl)-N^5-(2-methylsulfanyl-ethyl)-quinoline-2,5-diamine] | – | 25.2
4 | ON=C(c1cccc2nc(N[C@@H]3CCc4ccccc43)ccc12)C1CC1 [Example 31, Cyclopropyl-[2-((R)-indan-1-ylamino)-quinolin-5-yl]-methanone oxime] | 151 | 5.8
5 | O=C(CC1CCOCC1)Nc1cccc2nc(N[C@@H]3CCc4ccccc43)ccc12 [Example 35, N-[2-((R)-Indan-1-ylamino)-quinolin-5-yl]-2-(tetrahydro-pyran-4-yl)-acetamide] | 211 | –
6 | COc1ccc(CC(=O)Nc2cccc3nc(NC4CCc5cccc(OC)c54)ccc23)cc1 (racemic) [Example 58, rac-N-[2-(7-Methoxy-indan-1-ylamino)-quinolin-5-yl]-2-(4-methoxy-phenyl)-acetamide] | 209 | –
7 | COc1cccc2c1C(Nc1ccc3c(NC(=O)Cc4cccs4)cccc3n1)CC2 (racemic) [Example 55, rac-N-[2-(7-Methoxy-indan-1-ylamino)-quinolin-5-yl]-2-thiophen-2-yl-acetamide] | 194 | –
8 | COc1cccc2c1C(Nc1ccc3c(NC(=O)Cc4ccc(F)cc4)cccc3n1)CC2 (racemic) [Example 54, rac-2-(4-Fluoro-phenyl)-N-[2-(7-methoxy-indan-1-ylamino)-quinolin-5-yl]-acetamide] | 195 | 11
9 | c1ccc2c(c1)CC[C@H]2Nc1ccc2c(NC3CCOCC3)cccc2n1 [Example 3, N^2-(R)-Indan-1-yl-N^5-(tetrahydro-pyran-4-yl)-quinoline-2,5-diamine] | – | 26
10 | c1ccc2c(c1)CC[C@H]2Nc1ccc2c(C3CC3)cccc2n1 [Example 44, (5-Cyclopropyl-quinolin-2-yl)-(R)-indan-1-yl-amine] | – | 27.7
11 | N=C(NO)c1cccc2nc(N[C@@H]3CCc4ccccc43)ccc12 [Example 28, N-Hydroxy-2-((R)-indan-1-ylamino)-quinoline-5-carboxamidine] | 200.5 | 17.4
12 | CNc1cccc2nc(N[C@@H]3CCc4ccccc43)ccc12 [Example 1, N^2-(R)-Indan-1-yl-N^5-methyl-quinoline-2,5-diamine] | – | 22.5
13 | COc1cccc2c1C(Nc1ccc3c(NC(=O)Cc4cc(F)cc(F)c4)cccc3n1)CC2 (racemic) [Example 56, rac-2-(3,5-Difluoro-phenyl)-N-[2-(7-methoxy-indan-1-ylamino)-quinolin-5-yl]-acetamide] | 248 | –
14 | COc1ccc(CC(=O)Nc2cccc3nc(NC4CCc5cc(F)ccc54)ccc23)cc1 (racemic) [Example 53, rac-N-[2-(5-Fluoro-indan-1-ylamino)-quinolin-5-yl]-2-(4-methoxy-phenyl)-acetamide] | 192 | –
15 | O=C(Cc1ccc(F)cc1)Nc1cccc2nc(NC3CCc4cc(F)ccc43)ccc12 (racemic) [Example 48, rac-N-[2-(5-Fluoro-indan-1-ylamino)-quinolin-5-yl]-2-(4-fluoro-phenyl)-acetamide] | 187 | 17.6
16 | O=C(Cc1ccc(Cl)cc1)Nc1cccc2nc(NC3CCc4cc(F)ccc43)ccc12 (racemic) [Example 51, rac-2-(4-Chloro-phenyl)-N-[2-(5-fluoro-indan-1-ylamino)-quinolin-5-yl]-acetamide] | 221 | 9.4
17 | O=C(CN1CCOCC1)Nc1cccc2nc(N[C@@H]3CCc4ccccc43)ccc12 [Example 33, N-[2-((R)-Indan-1-ylamino)-quinolin-5-yl]-2-morpholin-4-yl-acetamide] | 179 | –
18 | CSCCNc1cccc2nc(N[C@@H]3CCc4ccccc43)ccc12 [Example 5, N^2-(R)-Indan-1-yl-N^5-(2-methylsulfanyl-ethyl)-quinoline-2,5-diamine] | – | 23.5
19 | Nc1cccc2nc(NC3Cc4ccccc4C3)ccc12 (racemic) [Example 23, rac-N^2-Indan-2-yl-quinoline-2,5-diamine] | – | 219

Row | Compound | melting point [°C] | Ki [1] [nM]
20 | O=C(Cc1ccc(Cl)cc1)Nc1cccc2nc(N[C@@H]3CCc4ccccc43)ccc12 [Example 60, 2-(4-Chloro-phenyl)-N-[2-((R)-indan-1-ylamino)-quinolin-5-yl]-acetamide] | 170 | 5.5
21 | O=S(=O)(Nc1cccc2nc(N[C@@H]3CCc4ccccc43)ccc12)C1CC1 [Example 17, Cyclopropanesulfonic acid[2-((R)-indan-1-ylamino)-quinolin-5-yl]-amide] | – | 32.2
22 | COc1ccc(CC(=O)Nc2cccc3nc(N[C@@H]4CCc5ccccc54)ccc23)cc1 [Example 52, N-[2-((R)-Indan-1-ylamino)-quinolin-5-yl]-2-(4-methoxy-phenyl)-acetamide] | 175 | –
23 | O=C(Cc1cccs1)Nc1cccc2nc(NC3CCc4cc(F)ccc43)ccc12 (racemic) [Example 49, rac-N-[2-(5-Fluoro-indan-1-ylamino)-quinolin-5-yl]-2-thiophen-2-yl-acetamide] | 184 | –
24 | COCCOc1cccc2nc(N[C@@H]3CCc4ccccc43)ccc12 [Example 24, (R)-Indan-1-yl-[5-(2-methoxy-ethoxy)-quinolin-2-yl]-amine] | – | 90.6
25 | O=C(Cn1ccnc1)Nc1cccc2nc(N[C@@H]3CCc4ccccc43)ccc12 [Example 47, 2-Imidazol-1-yl-N-[2-((R)-indan-1-ylamino)-quinolin-5-yl]-acetamide] | 226 | –
26 | O=C(Cc1cc(F)cc(F)c1)Nc1cccc2nc(NC3CCc4cc(F)ccc43)ccc12 (racemic) [Example 50, rac-2-(3,5-Difluoro-phenyl)-N-[2-(5-fluoro-indan-1-ylamino)-quinolin-5-yl]-acetamide] | 203 | –
27 | CS(=O)(=O)CCNc1cccc2nc(N[C@@H]3CCc4ccccc43)ccc12 [Example 7, N^2-(R)-Indan-1-yl-N^5-(2-methanesulfonyl-ethyl)-quinoline-2,5-diamine] | – | 24.7
28 | C[S+]([O-])CCNc1cccc2nc(N[C@@H]3CCc4ccccc43)ccc12 (stereo partly drawn) [Example 6, N^2-(R)-Indan-1-yl-N^5-(2-methanesulfinyl-ethyl)-quinoline-2,5-diamine] | – | 26.5
29 | c1ccc2c(c1)CC[C@H]2Nc1ccc2c(N3CCOCC3)cccc2n1 [Example 4, (R)-Indan-1-yl-(5-morpholin-4-yl-quinolin-2-yl)-amine] | – | 105
30 | O=C(Cc1ccc(F)cc1)Nc1cccc2nc(N[C@@H]3CCc4ccccc43)ccc12 [Example 45, 2-(4-Fluoro-phenyl)-N-[2-((R)-indan-1-ylamino)-quinolin-5-yl]-acetamide] | 207 | 11
31 | CN(C)CC(=O)Nc1cccc2nc(N[C@@H]3CCc4ccccc43)ccc12 [Example 32, 2-Dimethylamino-N-[2-((R)-indan-1-ylamino)-quinolin-5-yl]-acetamide] | 153 | –
32 | COc1cccc2c1C(Nc1ccc3c(N)cccc3n1)CC2 (racemic) [Example 19, rac-N^2-(7-Methoxy-indan-1-yl)-quinoline-2,5-diamine] | – | 6.1
33 | Nc1cccc2nc(NC3CCc4cc(F)ccc43)ccc12 (racemic) [Example 37, rac-N^2-[5-Fluoro-indan-1-yl]-quinoline-2,5-diamine] | – | 12.5
34 | COc1cccc2c1C(Nc1ccc3c(NC(=O)Cc4ccc(Cl)cc4)cccc3n1)CC2 (racemic) [Example 57, rac-2-(4-Chloro-phenyl)-N-[2-(7-methoxy-indan-1-ylamino)-quinolin-5-yl]-acetamide] | 234 | 9.1
35 | O=C(Cc1cccs1)Nc1cccc2nc(N[C@@H]3CCc4ccccc43)ccc12 [Example 46, N-[2-((R)-Indan-1-ylamino)-quinolin-5-yl]-2-thiophen-2-yl-acetamide] | 163.5 | 36.1
36 | COc1cccc2c1C(Nc1ccc3c(NS(=O)(=O)N(C)C)cccc3n1)CC2 (racemic) [Example 20, rac-N′-{2-[(7-methoxy-indan-1-yl)amino]quinolin-5-yl}-N,N-dimethylsulfamide] | – | 2.3
37 | Nc1cccc2nc(N[C@@H]3CCc4ccccc43)ccc12 [Example 16, (R)—N^2-Indan-1-yl-quinoline-2,5-diamine] | – | 7.2
38 | O=C(Cc1cc(F)cc(F)c1)Nc1cccc2nc(N[C@@H]3CCc4ccccc43)ccc12 [Example 59, 2-(3,5-Difluoro-phenyl)-N-[2-((R)-indan-1-ylamino)-quinolin-5-yl]-acetamide] | 221 | 28.7
